This note sets out measurements from ChEMBL document CHEMBL4145442, “Novel LCK/FMS inhibitors based on phenoxypyrimidine scaffold as potential treatment for inflammatory disorders” (Eur J Med Chem, 2017).

By pIC50 is commonly meant −log10 of the IC50, conventionally taken in molar units.

Assay [1] addresses T1, Tyrosine-protein kinase Lck (Homo sapiens, UniProt P06239). The assay is described as follows: Inhibition of LCK (unknown origin) after 120 mins in presence of 33P-ATP.
Target sequence in this assay (P06239 whole entry): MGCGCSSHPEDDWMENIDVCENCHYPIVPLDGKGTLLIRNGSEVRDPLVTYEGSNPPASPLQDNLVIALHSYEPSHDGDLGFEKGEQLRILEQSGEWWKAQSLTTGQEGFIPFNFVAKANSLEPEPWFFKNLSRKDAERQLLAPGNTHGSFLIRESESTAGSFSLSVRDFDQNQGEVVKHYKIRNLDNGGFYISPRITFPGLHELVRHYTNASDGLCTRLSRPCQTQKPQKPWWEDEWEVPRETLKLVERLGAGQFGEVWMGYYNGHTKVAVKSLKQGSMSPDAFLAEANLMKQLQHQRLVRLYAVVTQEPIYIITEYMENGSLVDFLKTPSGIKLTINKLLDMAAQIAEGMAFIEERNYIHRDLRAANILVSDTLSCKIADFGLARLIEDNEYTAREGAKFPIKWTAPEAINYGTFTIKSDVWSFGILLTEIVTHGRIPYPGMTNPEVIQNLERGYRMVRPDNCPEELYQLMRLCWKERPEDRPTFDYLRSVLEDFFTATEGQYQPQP
The target in assay [2] is T1, Tyrosine-protein kinase Lck. The assay is described as follows: Inhibition of LCK (unknown origin) assessed as remaining activity at 3 x 10^-5 M after 120 mins in presence of 33P-ATP (reference value: […]% to […]%). Particulars: at 30 µM.
Target sequence in this assay (P06239 2-509 limits assumed): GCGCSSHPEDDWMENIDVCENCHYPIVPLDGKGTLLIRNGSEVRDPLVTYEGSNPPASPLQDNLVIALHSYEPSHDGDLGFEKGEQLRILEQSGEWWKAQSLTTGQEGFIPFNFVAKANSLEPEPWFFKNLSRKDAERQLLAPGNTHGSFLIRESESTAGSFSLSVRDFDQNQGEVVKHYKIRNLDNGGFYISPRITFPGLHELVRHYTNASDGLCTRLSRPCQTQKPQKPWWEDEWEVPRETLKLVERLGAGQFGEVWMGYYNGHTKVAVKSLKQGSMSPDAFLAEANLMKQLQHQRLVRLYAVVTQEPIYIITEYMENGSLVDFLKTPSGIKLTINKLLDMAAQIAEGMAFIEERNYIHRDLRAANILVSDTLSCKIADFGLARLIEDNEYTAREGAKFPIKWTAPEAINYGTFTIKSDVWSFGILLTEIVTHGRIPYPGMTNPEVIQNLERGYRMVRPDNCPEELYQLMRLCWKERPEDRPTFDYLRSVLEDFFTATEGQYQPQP
The target is the same in assay [3]. Kind of assay: Inhibition of LCK (unknown origin) assessed as remaining activity at 1 x 10^-5 M after 120 mins in presence of 33P-ATP (reference value: […]% to […]%). Conditions: at 10 µM.
Target sequence in this assay (P06239 2-509 limits assumed): as above
For assay [4] the target is unchanged. The assay is described as follows: Inhibition of LCK (unknown origin) assessed as remaining activity at 3.33 x 10^-6 M after 120 mins in presence of 33P-ATP (reference value: […]% to […]%). Particulars: at 3.33 µM.
Target sequence in this assay (P06239 2-509 limits assumed): as above
Assay [5] has the same target. The assay is described as follows: Inhibition of LCK (unknown origin) assessed as remaining activity at […] x 10^-6 M after 120 mins in presence of 33P-ATP (reference value: […]% to […]%).
Target sequence in this assay (P06239 2-509 limits assumed): as above
Assay [6] shares this target. The assay is described as follows: Inhibition of LCK (unknown origin) assessed as remaining activity at 3.7 x 10^-7 M after 120 mins in presence of 33P-ATP (reference value: […]% to […]%). Particulars: at 0.37 µM.
Target sequence in this assay (P06239 2-509 limits assumed): as above

Structures are written as SMILES. pIC50: −log10 of the molar value.

As for `COc1cc(C)ccc1Oc1nc(Nc2ccc(N3CCOCC3)cc2)ncc1NCc1cccc(OC(F)(F)F)c1`, the pIC50 in assay [1] is 4.65. Moreover, the Activity in assay [2] was in the range of 44.9 to 45.8%; in assay [3], 61.3 to 65.9%; in assay [4], 68.8 to 76.6%; in assay [5], 83.5 to 91.3%; in assay [6] it was 92.7 to 92.9%.
Regarding `COc1cc(OC)cc(C(=O)Nc2cnc(Nc3ccc(N4CCOCC4)cc3)nc2Oc2ccc(C)cc2OC)c1`, the pIC50 in assay [1] was 4.99. In addition, the Activity in assay [2] fell in the range of 39 to 39.6%; in assay [3], 46.5 to 47%; in assay [4], 67.3 to 72.8%; in assay [5] it was 86.7 to 89%; in assay [6], 99.1 to 99.3%.
`COc1cc(C)ccc1Oc1nc(Nc2ccc(N3CCOCC3)cc2)ncc1NCc1ccc(OC(F)(F)F)cc1`: in assay [1], the pIC50 is 5.48. Moreover, the Activity in assay [2] fell in the range of 21.3 to 22.5%; in assay [3], 43.7 to 45.1%; in assay [4], 45 to 47.1%; in assay [5], 59.5 to 61.6%; in assay [6], 84.9 to 85.4%.
With `COc1cc(C)ccc1Oc1nc(Nc2ccc(N3CCOCC3)cc2)ncc1/N=C/c1cc(C(F)(F)F)cc(C(F)(F)F)c1`, in assay [1], the pIC50 is 8.22. Further, the Activity is 24.1 to 28.5% in assay [2]; 55.5 to 56.8% in assay [3]; 24.7 to 27.4% in assay [4]; 19.2 to 20.1% in assay [5]; 39.7 to 40.7% in assay [6].
In the case of `COc1cc(NC(=O)Nc2cnc(Nc3ccc(N4CCOCC4)cc3)nc2Oc2ccc(C(F)(F)F)cc2)cc(OC)c1`, the pIC50 in assay [1] was below 4.00. Further, the Activity in assay [2] lay within 74.2 to 74.8%; in assay [3], 78.1 to 84.5%; in assay [4], 83.8 to 90.7%; in assay [5], 89.3 to 89.9%; in assay [6], 96 to 100%.
Regarding `COc1cc(NC(=O)Nc2cnc(Nc3ccc(N4CCOCC4)cc3)nc2Oc2ccc(F)cc2)cc(OC)c1`, in assay [1], the pIC50 was 4.15. Besides, the Activity fell in the range of 52.5 to 61.6% in assay [2]; 68.9 to 70.1% in assay [3]; 77.8 to 81.3% in assay [4]; 84 to 87.5% in assay [5]; 83.2 to 90.3% in assay [6].
With `COc1cc(C)ccc1Oc1nc(Nc2ccc(N3CCOCC3)cc2)ncc1NC(=O)Nc1cc(C(F)(F)F)cc(C(F)(F)F)c1`, the negative-log IC50 (pIC50) in assay [1] was below 4.00. In addition, the Activity in assay [2] fell in the range of 83.5 to 89.8%; in assay [3], 89.7 to 95.1%; in assay [4], 91 to 91.3%; in assay [5] it was 96 to 98%; in assay [6], 95.3 to 99.2%.
`COc1ccccc1NC(=O)Nc1cnc(Nc2ccc(N3CCOCC3)cc2)nc1Oc1ccc(C)cc1OC`: the pIC50 in assay [1] is 5.26. Also, the Activity in assay [2] was in the range of 35.9 to 36.2%; in assay [3], 33.8 to 33.9%; in assay [4], 54.2 to 56%; in assay [5] it was 82.2 to 82.9%; in assay [6], 97.2 to 97.4%.
On to `COc1cc(NC(=O)Nc2cnc(Nc3ccc(N4CCOCC4)cc3)nc2Oc2cccc(OC)c2)cc(OC)c1`, for which the pIC50 in assay [1] is 5.10. Besides, the Activity in assay [2] was in the range of 62.1 to 63.2%; in assay [3] it was 42.1 to 49.3%; in assay [4], 57.6 to 66.5%; in assay [5] it was 64.7 to 71%; in assay [6] it was 78.7 to 86.2%.
As for `COc1cc(C)ccc1Oc1nc(Nc2ccc(N3CCOCC3)cc2)ncc1NC(=O)Nc1c(Cl)cccc1Cl`, in assay [1], the pIC50 was 4.76. Further, the Activity in assay [2] lay within 34.8 to 38.1%; in assay [3], 58.3 to 62.7%; in assay [4], 75.6 to 81.8%; in assay [5] it was 86.8 to 89.4%; in assay [6], 93.2 to 97.7%.
Turning to `COc1ccc(NC(=O)Nc2cnc(Nc3cc(OC)cc(OC)c3)nc2Oc2ccc(C)cc2OC)cc1`, in assay [1], the pIC50 was below 4.00. Further, the Activity in assay [2] fell in the range of 90.7 to 95.4%; in assay [3], 92.4 to 97.2%; in assay [4], 96.5 to 99.7%; in assay [5] it was 98 to 102%; in assay [6], 96.3 to 102%.
`COc1cc(Nc2ncc(NC(=O)Nc3c(Cl)cccc3Cl)c(Oc3ccc(C)cc3OC)n2)cc(OC)c1`: the pIC50 in assay [1] is 4.23. Also, the Activity fell in the range of 61.5 to 61.7% in assay [2]; 72.6 to 81.8% in assay [3]; 85.2 to 88.2% in assay [4]; 94 to 95.5% in assay [5]; 93.7 to 96% in assay [6].
